Tested on: T4-2 cells
Experiment: Reversion assay in 3D rBM cultures with Northern blot of AZU-1 message
Assay type: cell-based, human
Conditions: 3D rBM culture; AIIB2 100 μg/ml ascites protein, Tyrphostin AG 1478 100 nM
Source text: To test this, total RNA was extracted from 3D rBM cultures of S1 cells and T4-2 cells treated with or without inhibitors of either β1 integrin (mAb AIIB2) or EGFR (Tyrphostin). Results are seen in FIG. 18. […] By virtue of its connections with β1 integrin and EGFR, AZU-1 may provide essential cellular information that dictates cellular structure and phenotype.
Total RNA was extracted from cells cultured as monolayers or in 3D rBM or cells from normal tissues or in situ carcinoma with TRIzol reagent (Life Technologies, Inc. Grand Island, N.Y.). For Northern blots, total RNA (20 μg/lane) was resolved on denaturing agarose gels and transferred to Hybond-N^+ membranes (Amersham). Resulting blots were hybridized with ^32P-labeled cDNA probes and analyzed by autoradiography. A GAPDH probe was used to normalize variations in loading.
The β1-integrin function-blocking mAb AIIB2 (C. Damsky, UCSF) was introduced into the cell-embedded substratum at a concentration of 100 μg/ml ascites protein (which corresponds to 4-10 μg/ml purified rat IgG1) at the time of Matrigel gelation. Tyrphostin AG 1478 (Calbiochem) dissolved in dimethyl sulfoxide was added to the medium at a concentration of 100 nM on alternate days. Control cultures were treated with […] and vehicle only for AIIB2 antibody and inhibitor experiments, respectively.

COc1cc2ncnc(Nc3cccc(Cl)c3)c2cc1OC [Tyrphostin, Tyrphostin AG 1478]
AZU-1 message levels in treated T4-2 cells (Northern blot): restored to S1-like levels | phenotype of treated T4-2 cells in 3D rBM: phenotypically reverted
